From patent publication US20260124222A1, “ISOTHIAZOLYLCARBOXAMIDE COMPOUNDS AND THEIR USE IN THERAPY” (HOTSPOT THERAPEUTICS, INC., priority 2022, published 2026)

Molecular target: T1, Avi-tagged FL MALT-1 (Homo sapiens, UniProt Q9UDY8)
T1 construct: Avi-tagged FL MALT-1 (Pharmaron, stored at −70° C.); Avi-tag; purchased Pharmaron
T1 sequence (Q9UDY8 1-824): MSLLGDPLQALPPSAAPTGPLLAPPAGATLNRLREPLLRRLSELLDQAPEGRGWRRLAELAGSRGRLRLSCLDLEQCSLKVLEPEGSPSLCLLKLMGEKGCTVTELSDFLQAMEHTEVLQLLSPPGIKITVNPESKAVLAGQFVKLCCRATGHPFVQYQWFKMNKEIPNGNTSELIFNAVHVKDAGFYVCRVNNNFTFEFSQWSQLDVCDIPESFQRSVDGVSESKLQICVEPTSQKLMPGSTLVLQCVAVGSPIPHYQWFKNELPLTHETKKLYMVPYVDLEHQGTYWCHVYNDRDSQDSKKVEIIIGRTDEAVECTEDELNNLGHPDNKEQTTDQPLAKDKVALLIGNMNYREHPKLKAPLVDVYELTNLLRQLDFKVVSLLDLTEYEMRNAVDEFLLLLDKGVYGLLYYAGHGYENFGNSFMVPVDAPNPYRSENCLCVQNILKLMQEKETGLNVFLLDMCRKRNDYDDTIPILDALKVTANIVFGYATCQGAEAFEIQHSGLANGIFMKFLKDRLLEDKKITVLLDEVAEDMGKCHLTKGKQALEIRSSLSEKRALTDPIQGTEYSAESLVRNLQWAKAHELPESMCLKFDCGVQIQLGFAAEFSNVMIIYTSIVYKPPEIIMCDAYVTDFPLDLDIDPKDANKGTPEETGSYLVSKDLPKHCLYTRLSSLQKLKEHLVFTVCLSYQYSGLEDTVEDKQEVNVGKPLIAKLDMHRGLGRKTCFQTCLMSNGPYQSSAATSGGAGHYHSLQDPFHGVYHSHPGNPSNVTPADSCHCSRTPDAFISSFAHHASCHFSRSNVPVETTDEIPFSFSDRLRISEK
Assay: MALT-1 Fluorogenic Peptide Cleavage Assay (MALT1 inhibition assay)
Format: biochemical
Details: Ac-LRSR-AMC peptide substrate; 30 min pre-incubation, 90 min reaction at room temperature; fluorescence
Outline: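 Full-length Avi-tagged enzyme preincubated 30 min at room temperature with compound (2% DMSO final) in HEPES pH 6.89 buffer with sodium citrate, TCEP, EDTA and CHAPS. Ac-LRSR-AMC substrate added at Km or 10×Km (working stocks 50 or […] μM); fluorescence (ex 342/em 441 nm) after 90 min; IC50 from sigmoidal fit.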

| SMILES | IC50 |
| --- | --- |
| Cn1cc2c(-c3nsc(C(=O)Nc4ccnc(C(F)(F)F)c4)c3C3CC3)cccc2n1 [I-157, 4-cyclopropyl-3-(2-methyl-2H-indazol-4-yl)-N-(2-(trifluoromethyl)pyridin-4-yl)isothiazole-5-carboxamide] | ≤ 400 nM |
| N#Cc1cccc(-c2nsc(C(=O)Nc3ccnc(C(F)(F)F)c3)c2C2CC2)c1 [I-158, 3-(3-cyanophenyl)-4-cyclopropyl-N-[2-(trifluoromethyl)pyridin-4-yl]-1,2-thiazole-5-carboxamide] | ≤ 400 nM |
| O=C(Nc1ccnc(C(F)(F)F)c1)c1snc(-c2cccc3scnc23)c1C1CC1 [I-159, 3-(1,3-benzothiazol-4-yl)-4-cyclopropyl-N-[2-(trifluoromethyl)pyridin-4-yl]-1,2-thiazole-5-carboxamide] | ≤ 400 nM |
| Cc1ccccc1-c1nsc(C(=O)Nc2ccnc(C(F)(F)F)c2)c1C1CC1 [I-160, 4-cyclopropyl-3-(2-methylphenyl)-N-[2-(trifluoromethyl)pyridin-4-yl]-1,2-thiazole-5-carboxamide] | ≤ 400 nM |
| COc1ccccc1-c1nsc(C(=O)Nc2ccnc(C(F)(F)F)c2)c1C1CC1 [I-161, 4-cyclopropyl-3-(2-methoxyphenyl)-N-[2-(trifluoromethyl)pyridin-4-yl]-1,2-thiazole-5-carboxamide] | ≤ 400 nM |
| O=C(Nc1ccnc(C(F)(F)F)c1)c1snc(-c2cccc3ocnc23)c1C1CC1 [I-162, 3-(1,3-benzoxazol-4-yl)-4-cyclopropyl-N-[2-(trifluoromethyl)pyridin-4-yl]-1,2-thiazole-5-carboxamide] | ≤ 400 nM |
| COc1ncccc1-c1nsc(C(=O)Nc2ccnc(C(F)(F)F)c2)c1C1CC1 [I-163, 4-cyclopropyl-3-(2-methoxypyridin-3-yl)-N-(2-(trifluoromethyl)pyridin-4-yl)isothiazole-5-carboxamide] | ≤ 400 nM |
| O=C(Nc1ccnc(C(F)(F)F)c1)c1snc(-c2ccccc2C(F)(F)F)c1C1CC1 [I-164, 4-cyclopropyl-3-(2-(trifluoromethyl)phenyl)-N-(2-(trifluoromethyl)pyridin-4-yl)isothiazole-5-carboxamide] | ≤ 400 nM |
| O=C(Nc1ccnc(C(F)(F)F)c1)c1snc(-c2cccnc2)c1C1CC1 [I-165, 4-cyclopropyl-3-(pyridin-3-yl)-N-(2-(trifluoromethyl)pyridin-4-yl)isothiazole-5-carboxamide] | ≤ 400 nM |
| O=C(Nc1ccnc(C(F)(F)F)c1)c1snc(-c2ccc3[nH]ncc3c2)c1C1CC1 [I-166, 4-cyclopropyl-3-(1H-indazol-5-yl)-N-(2-(trifluoromethyl)pyridin-4-yl)isothiazole-5-carboxamide] | ≤ 400 nM |
| Cc1cncc(-c2nsc(C(=O)Nc3ccnc(C(F)(F)F)c3)c2C2CC2)c1 [I-167, 4-cyclopropyl-3-(5-methylpyridin-3-yl)-N-(2-(trifluoromethyl)pyridin-4-yl)isothiazole-5-carboxamide] | 400 to 1000 nM |
| Cn1ncc2cc(-c3nsc(C(=O)Nc4ccnc(C(F)(F)F)c4)c3C3CC3)ccc21 [I-168, 4-cyclopropyl-3-(1-methyl-1H-indazol-5-yl)-N-(2-(trifluoromethyl)pyridin-4-yl)isothiazole-5-carboxamide] | 400 to 1000 nM |
| O=C(Nc1ccnc(C(F)(F)F)c1)c1snc(-c2ccc3cn[nH]c3c2)c1C1CC1 [I-169, 4-cyclopropyl-3-(1H-indazol-6-yl)-N-(2-(trifluoromethyl)pyridin-4-yl)isothiazole-5-carboxamide] | ≤ 400 nM |
| COc1ccncc1-c1nsc(C(=O)Nc2ccnc(C(F)(F)F)c2)c1C1CC1 [I-170, 4-cyclopropyl-3-(4-methoxypyridin-3-yl)-N-(2-(trifluoromethyl)pyridin-4-yl)isothiazole-5-carboxamide] | ≤ 400 nM |
| Cc1ncccc1-c1nsc(C(=O)Nc2ccnc(C(F)(F)F)c2)c1C1CC1 [I-171, 4-cyclopropyl-3-(2-methylpyridin-3-yl)-N-[2-(trifluoromethyl)pyridin-4-yl]-1,2-thiazole-5-carboxamide] | ≤ 400 nM |
| O=C(Nc1ccnc(C(F)(F)F)c1)c1snc(-c2ccc(F)cc2)c1C1CC1 [I-172, 4-cyclopropyl-3-(4-fluorophenyl)-N-[2-(trifluoromethyl)pyridin-4-yl]-1,2-thiazole-5-carboxamide] | ≤ 400 nM |

| SMILES | IC50 |
| --- | --- |
| Cc1ccncc1-c1nsc(C(=O)Nc2ccnc(C(F)(F)F)c2)c1C1CC1 [I-173, 4-cyclopropyl-3-(4-methylpyridin-3-yl)-N-(2-(trifluoromethyl)pyridin-4-yl)isothiazole-5-carboxamide] | ≤ 400 nM |
| O=C(Nc1ccnc(C(F)(F)F)c1)c1snc(-c2cccc(C(F)F)c2)c1C1CC1 [I-174, 4-cyclopropyl-3-[3-(difluoromethyl)phenyl]-N-[2-(trifluoromethyl)pyridin-4-yl]-1,2-thiazole-5-carboxamide] | ≤ 400 nM |
| Cn1ccc2c(-c3nsc(C(=O)Nc4ccnc(C(F)(F)F)c4)c3C3CC3)ccnc21 [I-175, 4-cyclopropyl-3-{1-methylpyrrolo[2,3-b]pyridin-4-yl}-N-[2-(trifluoromethyl)pyridin-4-yl]-1,2-thiazole-5-carboxamide] | ≤ 400 nM |
| CNC(=O)c1ccc(-c2nsc(C(=O)Nc3ccnc(C(F)(F)F)c3)c2C2CC2)cc1 [I-176, 4-cyclopropyl-3-[4-(methylcarbamoyl)phenyl]-N-[2-(trifluoromethyl)pyridin-4-yl]-1,2-thiazole-5-carboxamide] | 1000 to 2500 nM |
| O=C(Nc1ccnc(C(F)(F)F)c1)c1snc(-c2cncc3ccccc23)c1C1CC1 [I-177, 4-cyclopropyl-3-(isoquinolin-4-yl)-N-(2-(trifluoromethyl)pyridin-4-yl)isothiazole-5-carboxamide] | ≤ 400 nM |
| Cc1cccc(-c2nsc(C(=O)Nc3ccnc(C(F)(F)F)c3)c2C2CC2)c1 [I-178, 4-cyclopropyl-3-(3-methylphenyl)-N-[2-(trifluoromethyl)pyridin-4-yl]-1,2-thiazole-5-carboxamide] | ≤ 400 nM |
| N#Cc1cc(NC(=O)c2snc(-c3cccc4ncccc34)c2C2CC2)ccc1C(=O)N1CC(O)C1 [I-180, N-(3-cyano-4-(3-hydroxyazetidine-1-carbonyl)phenyl)-4-cyclopropyl-3-(quinolin-5-yl)isothiazole-5-carboxamide] | ≤ 400 nM |
| Cn1cc(-c2nsc(C(=O)Nc3ccnc(C(F)(F)F)c3)c2C2CC2)cn1 [I-181, 4-cyclopropyl-3-(1-methyl-1H-pyrazol-4-yl)-N-(2-(trifluoromethyl)pyridin-4-yl)isothiazole-5-carboxamide] | 1000 to 2500 nM |
| O=C(Nc1ccnc(C(F)(F)F)c1)c1snc(-c2cccc3[nH]ncc23)c1C1CC1 [I-182, 4-cyclopropyl-3-(1H-indazol-4-yl)-N-(2-(trifluoromethyl)pyridin-4-yl)isothiazole-5-carboxamide] | ≤ 400 nM |
| Cc1c(-c2nsc(C(=O)Nc3ccnc(C(F)(F)F)c3)c2C2CC2)cnn1C [I-183, 4-cyclopropyl-3-(1,5-dimethyl-1H-pyrazol-4-yl)-N-(2-(trifluoromethyl)pyridin-4-yl)isothiazole-5-carboxamide] | ≤ 400 nM |
| O=C(Nc1ccnc(C(F)(F)F)c1)c1snc(-c2ccncc2)c1C1CC1 [I-184, 4-cyclopropyl-3-(pyridin-4-yl)-N-(2-(trifluoromethyl)pyridin-4-yl)isothiazole-5-carboxamide] | ≤ 400 nM |
| O=C(Nc1ccnc(C(F)(F)F)c1)c1snc(-c2ccn3ccnc3c2)c1C1CC1 [I-185, 4-cyclopropyl-3-(imidazo[1,2-a]pyridin-7-yl)-N-(2-(trifluoromethyl)pyridin-4-yl)isothiazole-5-carboxamide] | 1000 to 2500 nM |
| O=C(Nc1ccnc(C(F)(F)F)c1)c1snc(-c2ccc3nccn3c2)c1C1CC1 [I-186, 4-cyclopropyl-3-{imidazo[1,2-a]pyridin-6-yl}-N-[2-(trifluoromethyl)pyridin-4-yl]-1,2-thiazole-5-carboxamide] | ≤ 400 nM |
| O=C(Nc1ccnc(C(F)(F)F)c1)c1snc(-c2c(Cl)cncc2Cl)c1C1CC1 [I-187, 4-cyclopropyl-3-(3,5-dichloropyridin-4-yl)-N-(2-(trifluoromethyl)pyridin-4-yl)isothiazole-5-carboxamide] | ≤ 400 nM |
| N#Cc1cc(NC(=O)c2snc(-c3cccc4c(=O)[nH]ccc34)c2C2CC2)cnc1-n1nccn1 [I-188, N-(5-cyano-6-(2H-1,2,3-triazol-2-yl)pyridin-3-yl)-4-cyclopropyl-3-(1-oxo-1,2-dihydroisoquinolin-5-yl)isothiazole-5-carboxamide] | ≤ 400 nM |
